In ChEMBL document CHEMBL1201862, “PubChem BioAssay data set” (2004):
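Assay format: 96-well plates, 48-hour exposure. At the GI50, growth is halved.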 Active and inactive are the calls of the source. No stated cut-off is given here; in the data, active = GI50 up to about 1.1 µM and inactive = higher.

What was measured:
Experiment in all cases: inhibition of tumour cell growth, NCI panel, 48 h
A498 = test system: A498
CCRF-CEM = test system: CCRF-CEM
COLO 205 = test system: COLO 205
DMS-273 = test system: DMS-273
Hs-578T = test system: Hs-578T
IGROV-1 = test system: IGROV-1
M14 = test system: M14
MCF7 = test system: MCF7
MOLT-4 = test system: MOLT-4
Malme-3M = test system: Malme-3M
PC-3 = test system: PC-3
SF-295 = test system: SF-295
SF-539 = test system: SF-539
SK-MEL-2 = test system: SK-MEL-2
SK-OV-3 = test system: SK-OV-3
SN12C = test system: SN12C
SNB-75 = test system: SNB-75
SR = test system: SR
U-251 = test system: U-251
UACC-257 = test system: UACC-257

Measured: GI50

CC1(C)C(=O)/C=C\C(=O)C(C)(C)C(=O)/C=C\C(=O)C(C)(C)C(=O)/C=C\C(=O)C(C)(C)C(=O)/C=C\C1=O
inactive: A498 > 68.5 µM | CCRF-CEM 3.51 µM | COLO 205 15.5 µM | DMS-273 16.8 µM | Hs-578T > 100 µM | IGROV-1 34.4 µM | M14 19.4 µM | MCF7 45.9 µM | MOLT-4 3.53 µM | Malme-3M 17.1 µM | PC-3 > 100 µM | SF-295 23.6 µM | SF-539 28 µM | SK-MEL-2 25.2 µM | SK-OV-3 > 70 µM | SN12C 24.3 µM | SNB-75 > 60 µM | SR 3.94 µM | U-251 27.7 µM | UACC-257 23.3 µM

O=C(Nc1ccc(Cl)c(C(F)(F)F)c1)C(=O)C(C(=O)/C=C/c1ccccc1)C1OC(=O)c2ccccc21 (stereo not drawn)
inactive: A498 > 100 µM | CCRF-CEM > 100 µM | COLO 205 > 100 µM | DMS-273 > 100 µM | IGROV-1 > 100 µM | M14 > 100 µM | MOLT-4 > 100 µM | Malme-3M > 100 µM | SF-295 > 100 µM | SK-OV-3 > 100 µM | SN12C > 100 µM | SNB-75 > 100 µM | SR > 100 µM | U-251 51.9 µM | UACC-257 > 100 µM

O=[N+]([O-])c1ccc(Cc2nc3ccccc3s2)cc1
inactive: A498 > 100 µM | CCRF-CEM 33.3 µM | COLO 205 > 100 µM | DMS-273 82.4 µM | IGROV-1 > 100 µM | M14 99.8 µM | MOLT-4 75.2 µM | Malme-3M > 100 µM | SF-295 > 100 µM | SF-539 26.8 µM | SK-MEL-2 > 100 µM | SK-OV-3 > 100 µM | SN12C 36.1 µM | SNB-75 > 100 µM | SR 46 µM | U-251 44.8 µM | UACC-257 > 100 µM

CS/C(=C(\S)c1ccccc1)c1ccccc1
inactive: A498 > 100 µM | COLO 205 > 100 µM | DMS-273 > 100 µM | IGROV-1 > 100 µM | M14 > 100 µM | MOLT-4 > 10 µM | Malme-3M > 100 µM | SF-295 > 100 µM | SF-539 > 100 µM | SK-MEL-2 > 100 µM | SK-OV-3 > 100 µM | SN12C > 100 µM | SNB-75 > 100 µM | SR 50.6 µM | U-251 > 100 µM | UACC-257 > 100 µM

Cn1cc2c(n1)c(N/N=C/c1ccccc1)nn1nnnc21
inactive: A498 > 100 µM | CCRF-CEM > 100 µM | COLO 205 > 100 µM | DMS-273 > 100 µM | IGROV-1 > 100 µM | M14 > 100 µM | MOLT-4 > 100 µM | Malme-3M > 100 µM | SF-295 > 100 µM | SF-539 > 100 µM | SK-OV-3 > 100 µM | SN12C > 100 µM | SNB-75 > 100 µM | SR > 100 µM | U-251 > 100 µM | UACC-257 > 100 µM

O=C1[C@@H]2C(c3ccccc3[N+](=O)[O-])=[N+](c3ccccc3)O[C@@H]2C(=O)N1c1ccc(Cc2ccc(N3C(=O)[C@H]4C(c5ccccc5[N+](=O)[O-])=[N+](c5ccccc5)O[C@H]4C3=O)cc2)cc1
inactive: A498 > 100 µM | CCRF-CEM > 100 µM | COLO 205 33.4 µM | DMS-273 > 100 µM | IGROV-1 > 100 µM | M14 16.4 µM | MOLT-4 > 100 µM | Malme-3M 27.7 µM | SF-295 > 100 µM | SF-539 > 100 µM | SK-MEL-2 > 100 µM | SK-OV-3 > 100 µM | SN12C > 100 µM | SNB-75 > 100 µM | SR > 100 µM | U-251 > 100 µM | UACC-257 > 100 µM

O=c1c2ccccc2nc(-c2ccccc2)n1NC(=S)Nc1cccc(Cl)c1
inactive: A498 > 100 µM | CCRF-CEM > 100 µM | COLO 205 > 100 µM | DMS-273 66.4 µM | IGROV-1 > 100 µM | M14 > 100 µM | MOLT-4 > 100 µM | Malme-3M > 100 µM | SF-295 64.4 µM | SF-539 79.1 µM | SK-MEL-2 > 100 µM | SK-OV-3 40.4 µM | SN12C > 100 µM | SNB-75 28.4 µM | SR > 100 µM | U-251 43.8 µM | UACC-257 > 100 µM

COc1ccc(NCC#N)cc1
inactive: A498 > 100 µM | CCRF-CEM > 100 µM | COLO 205 > 100 µM | DMS-273 > 100 µM | IGROV-1 > 100 µM | M14 > 100 µM | MOLT-4 > 100 µM | Malme-3M > 100 µM | SF-295 > 100 µM | SF-539 > 100 µM | SK-MEL-2 > 100 µM | SK-OV-3 > 100 µM | SN12C > 100 µM | SNB-75 76.2 µM | SR > 100 µM | U-251 > 100 µM | UACC-257 > 100 µM

CC1(C)OC(=O)C(C#N)=C1/C=C/c1coc2ccc(Cl)cc2c1=O
inactive: CCRF-CEM 17.7 µM | COLO 205 57.7 µM | DMS-273 35.1 µM | IGROV-1 58.3 µM | M14 35.6 µM | MOLT-4 26.1 µM | Malme-3M 26.2 µM | SF-295 29.8 µM | SF-539 > 10 µM | SK-MEL-2 22.1 µM | SK-OV-3 19.4 µM | SN12C 30.1 µM | SNB-75 14.9 µM | SR 31.5 µM | U-251 34.4 µM | UACC-257 31.3 µM

O/N=N/c1cnccn1
inactive: A498 > 1250 µM | CCRF-CEM 491 µM | COLO 205 > 1220 µM | DMS-273 > 1250 µM | Hs-578T > 1210 µM | IGROV-1 > 1150 µM | M14 > 1250 µM | MCF7 531 µM | MOLT-4 196 µM | Malme-3M > 1250 µM | PC-3 > 1250 µM | SF-295 > 1250 µM | SF-539 > 1190 µM | SK-MEL-2 > 1200 µM | SK-OV-3 > 269 µM | SN12C > 1250 µM | SNB-75 > 1110 µM | SR > 180 µM | U-251 1080 µM | UACC-257 > 1250 µM

O=C(/C=N/c1ccccc1C(=O)[O-])c1cccs1.O=C(/C=N/c1ccccc1C(=O)[O-])c1cccs1.[Zn+2]
inactive: A498 > 100 µM | CCRF-CEM 23.7 µM | COLO 205 > 100 µM | DMS-273 > 100 µM | IGROV-1 31.9 µM | M14 36.4 µM | MOLT-4 34 µM | Malme-3M > 10 µM | SF-295 20.4 µM | SF-539 42.5 µM | SK-MEL-2 25.8 µM | SK-OV-3 20.5 µM | SN12C > 10 µM | SNB-75 14.8 µM | SR 46.3 µM | U-251 17.5 µM | UACC-257 20.3 µM
